The nature of test [1]: Inhibition of PLA2 activity at 8 uM.
Test [2] in a line: Inhibition of PLA2 activity at 4 uM.

Activity calls are given as the source filed them. The rule behind the calls is not given here.

Data on four compounds can be found in ChEMBL document CHEMBL1149720, “Homoscalarane sesterterpenes from Lendenfeldia frondosa” (J Nat Prod, 1992).

As to `CC(=O)OC[C@]12CCCC(C)(C)[C@@H]1CC[C@]1(C)[C@@H]2C[C@@H](O)[C@]2(C)[C@H]3C(=O)O[C@@H](C)[C@@H]3[C@@H](OC(C)=O)C[C@@H]12`, the outcome in test [1] was inactive.

For `COC(=O)[C@H]1[C@H](C(C)=O)[C@@H](OC(C)=O)C[C@H]2[C@]3(C)CC[C@H]4C(C)(C)CCC[C@]4(COC(C)=O)[C@H]3C[C@@H](O)[C@]12C`, the outcome in test [1] was inactive.

In test [1], `CC(=O)OC[C@]12CCCC(C)(C)[C@@H]1CC[C@]1(C)[C@@H]2C[C@H]2OC(=O)[C@H]3[C@H](C(C)=O)[C@H](OC(C)=O)C[C@@H]1[C@]23C` gave an inhibition of 35%.

In test [2], `CC1=C(CC/C(C)=C/CCC2=CC[C@H](C3=CC(=O)O[C@H]3O)O[C@H]2O)C(C)(C)CCC1` showed an inhibition of 100%.

By inhibition is commonly meant the percentage by which the read-out fell short of the control. A lower inhibition goes with a weak effect.
